Data reported in US8664272B2, “Composition and methods for the treatment of myelodysplastic syndrome and acute myeloid leukemia” (Temple University—Of the Commonwealth System of Higher …, priority 2006, dated 2014).

Tests used:
[1] = tested on: myelodysplastic syndrome patients; conditions: cited from earlier work
HL-60 cell line = conditions: cited from earlier work
HL-60 cells = assay: Cytotoxicity of drug combinations towards HL-60 cells (WST-1 assay, median-effect analysis); assay type: cell-based, human; conditions: single agent, concentrations higher than 500 nM, 72 h
Experimental: Human promyelocytic leukemia cell line HL-60 were obtained from American Type Culture Collection. The cells were maintained in RPMI 1640 medium supplemented with 10% FBS, penicillin, (50 U/mL), streptomycin, (50 μg/mL). Cell cultures were maintained at 37° C. in 5% CO2 humidified atmosphere. Cells were counted in a hemocytometer, using Trypan blue staining as an indicator of viability.
The test compound, or combination of compounds, was added in 50 μL volume into flat-bottom 96-well plates. Control cultures received the same amount of medium without the test compound. HL-60 cells (1×10^6 cells/mL) were suspended in growth medium and dispensed in 50 μL aliquots into the well containing the compound. The plates were incubated at 37° C. (5% CO2) for 72 h. Cytotoxicity was then determined using the WST-1 assay. In the WST-1 assay cell viability is determined by incubating the cells for a further period of 0.5 to 4 h in the presence of the tetrazolium salt 4-(3-(4-iodophenyl)-2-(4-nitrophenyl)-2H-5-tetrazolio]-1,3-benzene disulfonate. In the presence of viable cells, the compound is reduced by mitochondrial dehydrogenases to a fluorescent product. The absorbance was measured against a background control without cell, in a microtiter plate reader (Bio-Tek Instruments, Elx 800) at 450 nm with a reference wavelength of 630 nm. […]

[2] = subcutaneous 75 mg/m^2/day for 7 days every 4 weeks, phase 3

SMILES	significant side-effects ([1]; clinical trials)	patients responded completely [1, 2]	patients responded partially [1, 2]	response rate [1, 2]	apoptosis (HL-60 cell line)	cell death (HL-60 cells)
Nc1ncn([C@@H]2O[C@H](CO)[C@@H](O)[C@H]2O)c(=O)n1 [Azacitidine, 5-azacytidine]	nausea, anemia, thrombocytopenia, vomiting, pyrexia, leukopenia, diarrhea, fatigue, injection site erythema, constipation, neutropenia, and ecchymosis	5%	10%	15%	induces apoptosis	–
COc1cc(OC)c(/C=C/S(=O)(=O)Cc2ccc(OC)c(NCC(=O)[O-])c2)c(OC)c1.[Na+] [Compound A, (E)-2-(5-((2,4,6-trimethoxystyrylsulfonyl)methyl)-2-methoxyphenylamino)acetic acid sodium salt]	–	–	–	–	–	virtually complete cell death
